Laboratory results as given in US6146824A, “Method for determining tumor cell adhesion” (Hadasit Medical Research Services and Development Company …, priority 1995, dated 2000).
No end group written: not given here.

How the values were obtained:
[1] = system: B16-BL6 cells; assay: Adhesion of high metastatic B16-BL6 melanoma cells to coated substrate (methylene blue uptake); format: cell-based, murine; settings: plates coated with 10, 50 or 250 μg/well peptide or 10 μg/ml plasmin-digested thrombin; 37° C., 2 hours
Protocol: (§1) Confluent endothelial cells were dissociated with trypsin-EDTA solution, washed once in growth medium and resuspended in DMEM containing 0.2% bovine serum albumin (BSA). 1.3×10^5 cells/well/0.2 ml DMEM containing 0.2 BSA were added to each protein-coated well and incubated at 37° C. for 2 h. The plates were then washed three times with phosphate batter saline (PBS) and the firmly attached cells were fixed with 3% paraformaldehyde. Fixed cells were then rinsed with 0.1 M borate buffer (pH 8.5), stained for 10 mins. at 22° C. with 0.1 ml/well methylene blue (1% in 0.1 M borate buffer, pH 8.5) and washed four times in borate buffer. This procedure removed practically all non cell-bound dye. Methylene blue which was incorporated by cells was dissolved with 0.1 N HCl (0.2 ml/well) for 40 mins. at 37° C., and determined by its absorbance at 600 nm. Tissue culture plates were coated with either 10, 50 or 250 μg/well of Th-1; with 10 μg/ml of thrombin digested by incubation at 22° C. for 1 hour with plasmin (2 μg/ml); or with 0.2% BSA which served as control (CON). 0.5×10^6 cells/wells of B16-BL6 or B16-F1 cells, which are known to present in vivo high and low pulmonary colonization, respectively, were incubated at 37° C. for 2 hours with the plates coated with the substrates described above. […] The level of cell attachment was evaluated by the methylene blue uptake assay described in I(E) above. […]

[2] = system: B16-F1 cells; assay: Adhesion of low metastatic B16-F1 melanoma cells to coated substrate (methylene blue uptake); format: cell-based, murine; settings: plates coated with 10, 50 or 250 μg/well peptide or 10 μg/ml plasmin-digested thrombin; 37° C., 2 hours
Protocol: as §1

[3] = system: B16-BL6 murine melanoma cells; assay: Inhibition of lung colonization of co-injected B16-BL6 melanoma cells in C57BL/6 mice; format: in vivo
Protocol: 1×10^5 cells/0.2 ml/mouse B16-BL6 cells were injected into the lateral tail vein of unanesthetized C57BL/6 mice. The mice were monitored on a daily basis and sacrificed 2 weeks later by cervical dislocation. The animals were necropsied, and the lungs were removed, washed in water, and fixed in Bouin's solution (containing saturated solution of picric acid, 2% glacial acetic acid and 3% formaldehyde). The number of lung nodules was determined under a dissecting microscope.
B16-BL6 cell monolayers in culture were detached for 2 mins. with 0.02% EDTA and resuspended gently to 1×10^5 cells/0.2 ml DMEM. 0.5 mg/1×10^5 cells/0.2 ml of Th-1 was preincubated, at 37° C. for 30 mins, with a half of the cells' cultures prior to injecting mice. A single cell suspension (1×10^5 cells/0.2 ml/mouse), comprising either Th-1 treated or Th-1 untreated melanoma cells was injected slowly into the lateral tail vein of C57BL/6 mice.
Fourteen days after injection, the mice were sacrificed, and their lungs were excised and fixed with 10% formaldehyde and stained with saturated picric acid. The number of surface melanoma colonies was counted visually or with the aid of a dissecting microscope.

[4] = system: B16-BL6 cells; assay: Inhibition of B16-BL6 cell adhesion to modified RGD-exposed thrombin (plasmin-digested); format: cell-based, murine
Protocol: Fixed cells were then rinsed with 0.1 M borate buffer (pH 8.5), stained for 10 mins. at 22° C. with 0.1 ml/well methylene blue (1% in 0.1 M borate buffer, pH 8.5) and washed four times in borate buffer. This procedure removed practically all non cell-bound dye. Methylene blue which was incorporated by cells was dissolved with 0.1 N HCl (0.2 ml/well) for 40 mins. at 37° C., and determined by its absorbance at 600 nm. 10 μg/ml of thrombin was digested with 2 μg/ml plasmin by incubation in 22° C. for 1 hour. Tissue culture plates were coated with digested […] by incubation at 4° C. for 2 hours. 1×10^6 B16-BL6 cells were incubated, at 22° C. for 30 mins. with increasing concentrations of Th-1 peptide (20-300 μg) prior to attachment to treated tissue culture plates by incubation at 37° C. for 2 hours. The attached cells were washed 3 times with PBS and fix with 3% formaldehyde. The level of attachment was evaluated by the methylene blue uptake assay described in I(E) above.

[5] = system: MeWoLN161 (61) cells; assay: Adhesion of high metastatic human melanoma cells 61 to Th-1; format: cell-based; settings: 100 μg/ml Th-1; compared with low metastatic MeWo
Protocol: (§2) Human melanoma cells established from lymph node metastases, being either MeWo cell lines representing diverse metastatic potentials, or a highly metastatic cell line originating from a melanoma patient (Nip et al., J. Clin. Invest. 90:1406-1413 (1992)) were used. High metastatic cells were selected by adhesion to lymph nodes and were designated as MeWoLN161 (also referred to as "61").
(§3) The cells were incubated with 100 μg/ml Th-1 and their adherence was determined as described above. As control, the level of adherence of the cells to BSA coated substrate was determined.

[6] = system: rat-aorta ring; assay: Apoptosis in rat aorta ring by TUNEL nuclei staining; format: cell-based
Protocol: Apoptosis, or programmed cell death, can be evaluated by DNA fragmentation using a technique based on terminal deoxynucleotidyl transferase (TdT) reactivity with DNA breaks. This histochemical staining was based on the original "TUNEL" method (Gavrieli, et al., J. Cell Biol. 119:493-501 (1992)). Tissue was fixed in buffered formalin; after deparaffinization and hydration, the slide was quenched with H2 O2, in methanol. In order to strip the nuclear proteins, the tissue was preincubated in Tris-HCl and then incubated with proteinase K (20 μg/ml) for 15 minutes and washed. DNA fragments are elongated and labeled with biotinylated poly dUTP, introduced by terminal deoxynucleotidyl transferase. Finally, bound biotin is stained by avidin conjugated peroxidase, developed with nickle-enhanced diaminobenzidine. For positive control (FIG. 12, E) staining serves a preparation that was exposed to DNase digestion (according to Gavieli, et al., supra). […] It is important to emphasize that the RGD derived peptide-Th-1, is capable of inducing in addition to inhibition of micro-vessel sprout formation, cellular signaling of programmed cell death, indicating a possible explanation for the mechanism by which angiogenesis is prevented by Th-1.

[7] = system: MIM/8 cells; assay: Adhesion of high metastatic human melanoma cells MIM/8 to Th-1; format: cell-based; settings: 100 μg/ml Th-1; compared with low metastatic MeWo
Protocol: as §2, §3

[8] = system: rat aorta rings
Protocol: Type 1 collagen is prepared from the tail tendons of adult Sprague-Dawley rats. Briefly, the collagen fibers are solubilized by a slow stirring for. 48 hours at 4° C. in a sterile, 1/1000 (v/v) acetic acid solution (300 ml for 1 gr. of collagen). The resulting solution is filtered through a sterile triple gause and centrifuged at 16,000 gr for 1 hour at 4° C. The collagen matrix gel is obtained by simultaneously raising the pH and ionic strength of the collagen solution. For this purpose, seven vols. of collagen solution was quickly mixed with 1 vol. of 10×Minimum Essential Medium and 2 vols. of sodium bicarbonate (0.15 M).
Thoratic aortas are obtained from 1-2 month old SD rats sacrificed by decapitation. The aortas are immediately transferred to a Petri dish with PBS. The fibroadipose tissue around the aorta is carefully removed under a dissecting microscope and 1 mm long aortic rings are sectioned and extensively rinsed with PBS.
The collagen solution (0.2 ml) is added to each of 16 mm well and gellation was allowed for 15 mins. at 37° C. The aorta ring is transferred and positioned to the center of the gel and another 0.4 ml of the collagen solution is carefully poured on top of the ring. After the gel is formed, 0.4 ml of Serum-free Endothelial Growth Medium is added and changed every other day.
In this system, the rings of aorta are cultured in a three-dimensional gel of collagen sprouts to microvessel.

[9] = system: melanoma cells; settings: Humphries et al. (1988); cited from earlier work

Substance | adhesion of B16-BL6 cells to the substrate [1] | adhesion of B16-F1 cells to the substrate [2] | inhibition of lung colonization ([3]; 0.5 mg peptide/mouse, co-injected i.v. with B16-BL6 cells, 14 days) | effect on melanotic colonies in the lungs ([3]; co-injection with B16-BL6 cells, 14 days after injection, vs B16-BL6 alone) | potency in inhibiting metastasis of melanoma cells relative to GRGDS peptide ([3]; vs GRGDS of prior art) | concentration at which inhibition of adhesion to modified RGD-exposed thrombin was already obtained ([4]; B16-BL6 cells) [µM] | inhibition of adhesion of B16-BL6 cells to modified RGD-exposed thrombin ([4]; cells preincubated with 20-300 μg peptide, 22° C., 30 mins) | adherence of 61 cells to Th-1 compared to BSA control [5] | concentration giving maximal induction of apoptosis [6] [µg/mL] | apoptosis (nuclei staining, TUNEL) ([6]; 10-250 μg/ml) | adherence of MIM/8 cells to Th-1 compared to BSA control [7] | concentration giving 50% inhibition of explant formation [8] [µg/mL] | concentration giving complete inhibition [8] [µg/mL] | inhibition of angiogenesis in aorta rings ([8]; 100 μg/ml, vs peptide of similar size without RGD-site) | microvessel formation after longer incubation then washout ([8]; 150 μg/ml for 6 days, then fresh medium) | microvessel formation with peptide constantly present ([8]; 150 μg/ml, up to 14 days) | inhibition in sprout formation of the microvessel ([8]; 10-250 μg/ml) | concentration at which inhibition of metastasis was evident [9] [mg/mouse]
AGYKPDEGKRGDAC [Th-1, I.D. No. 2, residues 178-191 of native thrombin] | high, dose dependent adhesion | low relatively dose independent adhesion level | Over 90% | marked reduction of melanotic colonies | about 20 fold | 16 | inhibited, in a dose depended manner | significantly higher level of adherence | 250 | dose dependent manner | significantly higher level of adherence | ~50 | 100 to 250 | able to inhibit angiogenesis | further increased inhibition | complete inhibition | dose dependent inhibition | 
GRGDS |  |  |  |  |  |  |  |  |  |  |  |  |  |  |  |  |  | 3
